PubChem BioAssay (NCI)
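48-hour exposure; five concentrations; linearly interpolated endpoints. GI50 is the concentration that inhibits growth by half. The concentration for full growth arrest is given as TGI.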

Columns and labels:
Experiment in all cases: NCI-60 cell line screen, 48 h
[1] = test system: 786-0 renal
[2] = test system: A498 renal
[3] = test system: A549 NSCLC
[4] = test system: ACHN renal
[5] = test system: BT-549 breast
[6] = test system: CAKI-1 renal
[7] = test system: CCRF-CEM leukemia
[8] = test system: COLO 205 colon
[9] = test system: DU-145 prostate
[10] = test system: EKVX NSCLC
[11] = test system: HCC-2998 colon
[12] = test system: HCT-116 colon
[13] = test system: HCT-15 colon
[14] = test system: HL-60(TB) leukemia
[15] = test system: HOP-62 NSCLC
[16] = test system: HOP-92 NSCLC
[17] = test system: HS 578T breast
[18] = test system: HT29 colon
[19] = test system: IGROV1 ovarian
[20] = test system: K-562 leukemia
[21] = test system: KM12 colon
[22] = test system: LOX IMVI melanoma
[23] = test system: M14 melanoma
[24] = test system: MALME-3M melanoma
[25] = test system: MCF7 breast
[26] = test system: MDA-MB-231 breast
[27] = test system: MDA-MB-435
[28] = test system: MDA-MB-468 breast
[29] = test system: MOLT-4 leukemia
[30] = test system: NCI-H226 lung
[31] = test system: NCI-H23 lung
[32] = test system: NCI-H460 lung
[33] = test system: NCI-H522 lung
[34] = test system: NCI/ADR-RES ovarian
[35] = test system: OVCAR-3 ovarian
[36] = test system: OVCAR-4 ovarian
[37] = test system: OVCAR-5 ovarian
[38] = test system: OVCAR-8 ovarian
[39] = test system: PC-3 prostate
[40] = test system: RPMI-8226 leukemia
[41] = test system: RXF 393 renal
[42] = test system: SF-268 CNS
[43] = test system: SF-295 CNS
[44] = test system: SF-539 CNS
[45] = test system: SK-MEL-2 melanoma
[46] = test system: SK-MEL-28 melanoma
[47] = test system: SK-MEL-5 melanoma
[48] = test system: SK-OV-3 ovarian
[49] = test system: SN12C renal
[50] = test system: SNB-19 CNS
[51] = test system: SNB-75 CNS
[52] = test system: SW-620 colon
[53] = test system: T-47D breast
[54] = test system: TK-10 renal
[55] = test system: U251 CNS
[56] = test system: UACC-257 melanoma
[57] = test system: UACC-62 melanoma
[58] = test system: UO-31 renal

With CN(C)CCOc1ccc(C(=O)C2[C@H](c3ccc(Cl)cc3)[C@@H](c3ccccc3)NC23C(=O)Nc2ccc(Br)cc23)cc1 (stereo partly specified) the GI50 [1] was 2680 nM, the TGI [1] was 4.95 µM and the GI50 [2] was 2530 nM. It also gave a TGI [2] of 4.99 µM, a GI50 [3] of 2510 nM and a TGI [3] of 4.85 µM. It also gave a GI50 [4] of 2550 nM, a TGI [4] of 4.77 µM and a GI50 [5] of 3 µM. The TGI [5] was 5.82 µM, the GI50 [6] was 2380 nM and the TGI [6] was 4.54 µM. It also gave a GI50 [7] of 3.09 µM, a TGI [7] of 7.86 µM and a GI50 [8] of 2750 nM. For the same molecule, the TGI [8] was 5.37 µM, the GI50 [9] was 2700 nM and the TGI [9] was 5 µM. The GI50 [10] was 2240 nM, the TGI [10] was 4.4 µM and the GI50 [11] was 2220 nM. It also gave a TGI [11] of 4.39 µM, a GI50 [12] of 2400 nM and a TGI [12] of 4.82 µM. It also gave a GI50 [13] of 2600 nM, a TGI [13] of 4.95 µM and a GI50 [14] of 2890 nM. For the same molecule, the TGI [14] was 6.75 µM, the GI50 [15] was 2690 nM and the TGI [15] was 5.56 µM. The GI50 [16] was 1740 nM, the TGI [16] was 3.8 µM and the GI50 [17] was 2180 nM. The TGI [17] was 6.88 µM, the GI50 [18] was 2470 nM and the TGI [18] was 5.2 µM. The GI50 [19] was 2510 nM, the TGI [19] was 4.79 µM and the GI50 [20] was 2730 nM. The TGI [20] was 9.03 µM, the GI50 [21] was 2800 nM and the TGI [21] was 5.46 µM. The GI50 [22] was 2420 nM, the TGI [22] was 4.61 µM and the GI50 [23] was 2890 nM. The TGI [23] was 5.45 µM, the GI50 [24] was 2430 nM and the TGI [24] was 4.81 µM. It also gave a GI50 [25] of 2410 nM, a TGI [25] of 5.05 µM and a GI50 [26] of 2410 nM. The TGI [26] was 4.59 µM, the GI50 [27] was 2590 nM and the TGI [27] was 4.84 µM. The GI50 [28] was 2400 nM, the TGI [28] was 4.68 µM and the GI50 [29] was 2580 nM. For the same molecule, the TGI [29] was 6.53 µM, the GI50 [30] was 2650 nM and the TGI [30] was 5.6 µM. It also gave a GI50 [31] of 2620 nM, a TGI [31] of 5.03 µM and a GI50 [32] of 2710 nM. It also gave a TGI [32] of 5.22 µM, a GI50 [33] of 2870 nM and a TGI [33] of 5.56 µM. For the same molecule, the GI50 [34] was 2680 nM, the TGI [34] was 5.07 µM and the GI50 [35] was 2240 nM. The TGI [35] was 4.57 µM, the GI50 [36] was 2470 nM and the TGI [36] was 4.91 µM. The GI50 [37] was 2230 nM, the TGI [37] was 4.34 µM and the GI50 [38] was 2580 nM. The TGI [38] was 5.01 µM, the GI50 [39] was 2480 nM and the TGI [39] was 4.94 µM. For the same molecule, the GI50 [40] was 3.33 µM, the TGI [40] was 8.37 µM and the GI50 [41] was 1650 nM. It also gave a TGI [41] of 3.61 µM, a GI50 [42] of 2470 nM and a TGI [42] of 5.46 µM. For the same molecule, the GI50 [43] was 2480 nM, the TGI [43] was 4.68 µM and the GI50 [44] was 2640 nM. The TGI [44] was 4.89 µM, the GI50 [45] was 2680 nM and the TGI [45] was 5.16 µM. It also gave a GI50 [46] of 2650 nM, a TGI [46] of 4.88 µM and a GI50 [47] of 2520 nM. For the same molecule, the TGI [47] was 4.71 µM, the GI50 [48] was 4.39 µM and the TGI [48] was 16.3 µM. The GI50 [49] was 2350 nM, the TGI [49] was 4.55 µM and the GI50 [50] was 2630 nM. The TGI [50] was 4.94 µM, the GI50 [51] was 1700 nM and the TGI [51] was 5.81 µM. It also gave a GI50 [52] of 2630 nM, a TGI [52] of 5.17 µM and a GI50 [53] of 2330 nM. It also gave a TGI [53] of 5.18 µM, a GI50 [54] of 2670 nM and a TGI [54] of 5.61 µM. The GI50 [55] was 2590 nM, the TGI [55] was 4.96 µM and the GI50 [56] was 2530 nM. It also gave a TGI [56] of 4.94 µM, a GI50 [57] of 2500 nM and a TGI [57] of 4.74 µM. It also gave a GI50 [58] of 2300 nM and a TGI [58] of 4.63 µM.
